For 13 compounds, EC50, Ki and IC50 results are on record in patent publication US11453671B2, “Pyrazolopyrimidine inhibitors of JAK kinases and uses thereof” (Genentech, Inc., priority 2020, dated 2022).

SMILES strings stand for the structures. Where two headings read alike, the source gives them in different places.

Data set [1] is described as follows: Cell cytotoxicity assay HEK-293T (CellTiter-Glo, 72 hours). As to conditions: human, HEK-293T cells, Table 4; methyl-desmethyl analog pairs; read-out: Cytotox K-293 EC50. It counts as cell-based. An excerpt:
(§1) Cytotoxicity assays. Hepatocyte toxicity, general cytotoxicity or cytotoxicity of unknown mechanism is an undesirable feature for a potential drug, including inhaled drugs. It may be of benefit for an inhaled JAK1 or JAK1/JAK2 inhibitor to have low intrinsic cytotoxicity against various cell types. Typical cell types used to assess cytotoxicity include both primary cells such as human hepatocytes, and proliferating established cell lines such as Jurkat and HEK-293. […] Methods of measuring cytotoxicity are known in the art. In some embodiments, compounds described herein were tested as follows:
(§2) (a) Jurkat and HEK293T cells were maintained at a sub confluent density in T175 flasks. Cells were plated at 450 cells/45 μl medium in Greiner 384 well black/clear tissue culture treated plates. (Greiner Catalog #781091). After dispensing cells, plates were equilibrated at room temperature for 30 minutes. After 30 minutes at room temperature, cells were incubated overnight at 37° C. in a CO2 and humidity controlled incubator. The following day, cells were treated with compounds diluted in 100% DMSO (final DMSO concentration on cells=0.5%) with a 10 point dose-response curve with a top concentration of 50 μM. Cells and compounds were then incubated for 72 hours overnight at 37° C. in a CO2 and humidity controlled incubator. After 72 hours of incubation, viability was measured using CellTiterGlo® (Promega Catalog #G7572) to all wells. After incubation at room temperature for 20 minutes, plates were read on EnVision™ (Perkin Elmer Life Sciences) using luminescence mode;
(§3) A549 (ATCC® CCL-185™), Jurkat clone E6-1 (ATCC® TIB-152™) and HEK-293T (ATCC® CRL-1573™) cells maintained at a sub-confluent density in T175 flasks were used. Cells in exponential growth phase were plated (450 cells in 45 μL of medium) in Greiner 384-well black/clear tissue culture treated plates (Greiner Catalog No. 781091). After dispensing cells, plates were allowed to equilibrate at room temperature for 30 minutes, after which time the cell plates were placed overnight in a 37° C. CO2 and humidity-controlled incubator. The following day, cells were treated with test agent diluted in 100% DMSO (0.5% final DMSO concentration on cells) with a 10-point titration and a top concentration of 50 μM. Cells and compounds were then incubated for 72 hours in a 37° C. CO2 and humidity-controlled incubator, after which time cell viability was measured by adding CellTiter-Glo® (Promega G7572) reagent to all wells. Plates were incubated at room temperature for 20 minutes and then the well luminescence was read on an EnVision plate reader (Perkin Elmer Life Sciences).
On the technique in general: Cellular ATP, detected with luciferase, serves as a proxy for viable cell number.

Data set [2] in a line: Cell cytotoxicity assay Jurkat (CellTiter-Glo, 72 hours). As to conditions: human, Jurkat clone E6-1 cells, Table 4; methyl-desmethyl analog pairs; read-out: Cytotox Jurkat EC50. The format is cell-based.
Excerpt: as §1, §2, §3

The nature of data set [3]: Cell cytotoxicity assay A549 (CellTiter-Glo, 72 hours). The format is cell-based. As to conditions: human, A549 cells, Table 4; methyl-desmethyl analog pairs; read-out: Cytotox A549 EC50. Here is the method: as §3
For data set [4], the target named is T1, recombinant human JAK1 kinase domain protein (Residues 854-1154) (Homo sapiens, UniProt P23458).
T1 construct: human JAK1 kinase domain protein (Residues 854-1154); purchased Proteros Biostructures GmbH (Martinsried, Germany); host or cells: insect cells
T1 sequence (P23458 854-1154): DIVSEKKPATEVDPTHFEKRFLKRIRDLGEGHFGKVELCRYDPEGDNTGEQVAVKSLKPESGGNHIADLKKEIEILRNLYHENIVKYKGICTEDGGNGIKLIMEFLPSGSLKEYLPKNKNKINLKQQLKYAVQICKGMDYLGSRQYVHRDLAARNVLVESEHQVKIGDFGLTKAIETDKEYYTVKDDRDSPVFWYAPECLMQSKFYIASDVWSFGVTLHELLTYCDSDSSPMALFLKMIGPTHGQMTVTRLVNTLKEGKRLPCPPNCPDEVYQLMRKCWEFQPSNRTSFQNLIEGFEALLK
As to the kind of experiment: JAK1 biochemical assay (microfluidic mobility shift, peptide phosphorylation). As to conditions: 25 μM ATP, 1 nM total JAK1; read-out: Enzyme JAK1 Ki. The text has this:
JAK1 and JAK2 Biochemical Assays

Data set [5] concerns JAK1: IL-13-stimulated STAT6 phosphorylation in BEAS-2B cells. Put plainly: P-STAT6 BEAS-2B+IL-13 Cell Assay. The format is cell-based, human. As to conditions: IL-13 stimulation, read-out: Cellular JAK1 PSTAT6 BEAS2B + IL13 IC50. The protocol:
P-STAT6 BEAS-2B+IL-13 Cell Assay
In order to study the effect of JAK1 inhibitors in a cell line that is relevant to the cell biology of human asthma, an IL-13-stimulated STAT6 phosphorylation assay in the human lung bronchial epithelial BEAS-2B cell line was developed.
BEAS-2B cells (ATCC® CRL-9609™) were grown in Bronchial Epithelial Growth Medium (BEGM) (Lonza Catalog No. CC-3170; Walkersville, Md.; or PromoCell Catalog No. C-21060; Heidelberg, Germany). Test compound stock solutions (0.5 mM in DMSO) were serially diluted 1:2 in DMSO to generate a 10-point concentration curve (at 500×test concentration), which was further diluted by a 50-fold dilution step in BEGM to generate a 10× concentration curve (in 2% DMSO). Cells were plated at 100,000 cells/well in 200 μL of BEGM in 96-well plates and incubated for 48 hours at 37° C. in a humidified incubator. Medium was aspirated from the cells and replaced with 70 μL of fresh BEGM. Diluted test compound (10 μL; or 2% DMSO in assay medium) was added to the cells, and the plates were incubated for 1 hour at 37° C. in a humidified incubator. Twenty μL of 250 ng/mL human recombinant IL-13 (Bio Techne Catalog No. 213-ILB) was then added to the cells and incubated for 15 minutes at 37° C. Medium was aspirated from the cells and 60 μL of ice-cold 1×cell lysis buffer (Cell Signaling Technologies; Catalog No. 9803S) containing 1 mM PMSF was added to the cells. Assay plates were incubated at −80° C. for at least 1 hour. P-STAT6 was measured by coating GAR plates (MSD; Catalog No. L45RA-1) with rabbit anti-human total STAT6 antibody (Cell Signaling Technologies; Catalog No. 9362S), incubating the cell lysates in the coated plates overnight at 4° C., and then detecting with mouse anti-phospho-STAT6 (Tyr641) Clone 16E12 antibody (Millipore; Catalog No. 05-590, custom labeled by MSD with SULFO-tag) using standard MSD plate processing, washing, and detection protocols. Plates were read on the MESO SECTOR S600. Data Analysis
Data analysis was performed by subtracting negative control values from all wells and determining percent of control using the positive control values; the IC50 was determined with a four-parameter logistic fit model as shown in Equation 4.

For data set [6], the target named is Recombinant human JAK2 kinase domain protein (Residues 812-1132) (Homo sapiens, UniProt O60674). Put plainly: JAK2 biochemical assay (microfluidic mobility shift, peptide phosphorylation). As to conditions: Enzyme JAK2 Ki (nM), 25 μM ATP, 0.2 nM total JAK2.
Sequence of Recombinant human JAK2 kinase domain protein (Residues 812-1132) (O60674 812-1132): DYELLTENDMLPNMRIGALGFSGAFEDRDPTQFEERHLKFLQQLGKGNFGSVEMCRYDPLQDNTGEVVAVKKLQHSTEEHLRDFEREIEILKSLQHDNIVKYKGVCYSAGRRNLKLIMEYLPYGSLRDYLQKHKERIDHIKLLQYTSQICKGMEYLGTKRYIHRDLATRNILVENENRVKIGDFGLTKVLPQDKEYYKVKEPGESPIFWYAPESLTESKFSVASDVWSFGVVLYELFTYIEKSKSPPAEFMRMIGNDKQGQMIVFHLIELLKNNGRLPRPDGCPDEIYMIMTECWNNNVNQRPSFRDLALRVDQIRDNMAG
Procedure: The in vitro biochemical assays quantify JAK-catalyzed phosphorylation of a synthetic peptide, as detected using a LabChip® EZ Reader II microfluidic mobility shift instrument (PerkinElmer; Waltham, Mass.). […] Y-1B is fluorescently labeled on the N-terminus with 5-FAM (5-carboxyfluorescein) and contains a single tyrosine residue (Y) that can be phosphorylated by JAK activity. The substrate peptide stock is prepared in DMSO at 5 mM.
In each titration experiment, test compound was tested in duplicate at each of the twelve concentrations. Blank reactions contained ATP, peptide, and DMSO, but no JAK or test compound, whereas uninhibited control reactions contained ATP, peptide, JAK, and DMSO, but no test compound.
Peptide plus ATP mixture (24 μL) was added to 1 μL of test compound in DMSO (or DMSO alone). The reactions were initiated by adding 25 μL of JAK enzyme to the inhibitor/peptide/ATP mixture before thoroughly mixing the resultant solution. Reactions were incubated at room temperature (22° C.-23° C.) in a final volume of 50 μL per well in 384-well plates.
In each reaction, the residual Y-1B substrate and the phospho-peptide product generated were separated using the EZ Reader II instrument. Electrophoretic separation of molecules of product from molecules of substrate was achieved using downstream and upstream voltages of −500 and −2600 V, respectively, at an operating pressure of −1.3 psi.
The extent (or percent) of conversion of substrate to product was calculated from the corresponding peak heights in the electropherogram using HTS Well Analyzer software, Version 5.2 (PerkinElmer), and the following equation (Equation 1): % conversion=[P÷(S+P)]×100 Equation 1 where S and P represent the peak heights of the substrate and product, respectively. After any baseline signal from blank wells containing no JAK was subtracted from the signal of all test wells, the % conversion data were converted to fractional activity as shown in Equation 2, where vi and vo are the % conversion in the presence and absence of test compound, respectively.

For `O=C(Nc1c[nH]nc1-c1cc(S(=O)(=O)C(F)F)ccc1OC(F)F)c1cnn2cccnc12` [reference compound], the figures for the half-maximal effective concentration (EC50) at 72 h in data set [1], in data set [2] and in data set [3] were 38 nM, 160 nM and 260 nM, respectively.
`Cn1cc(NC(=O)c2cnn3cccnc23)c(-c2cc(S(=O)(=O)C3CCNC3)ccc2OC(F)F)n1` (stereo not drawn) [Example 10, N-[3-[2-(difluoromethoxy)-5-pyrrolidin-3-ylsulfonyl-phenyl]-1-methyl-pyrazol-4-yl]pyrazolo[1,5-a]pyrimidine-3-carboxamide]: the Ki (usually the dissociation constant of the complex between target and ligand, obtained from inhibition or displacement) is 0.95 nM in data set [4] and 0.6 nM in data set [6]. Also, the IC50 (commonly the concentration that gives 50% inhibition) in data set [5] (Homo sapiens, BEAS-2B) is 52 nM.
Regarding `Cn1cc(NC(=O)c2cnn3cccnc23)c(-c2cc(S(=O)(=O)C(CF)CF)ccc2OC(F)F)n1` [Example 39, N-[3-[2-(difluoromethoxy)-5-[2-fluoro-1-(fluoromethyl)ethyl]sulfonyl-phenyl]-1-methyl-pyrazol-4-yl]pyrazolo[1,5-a]pyrimidine-3-carboxamide], the Ki in data set [4] amounted to 1.5 nM; in data set [6], 0.53 nM. Further, the IC50 in data set [5] (Homo sapiens, BEAS-2B) came to 230 nM.
With `CC(=O)N1CC(S(=O)(=O)c2ccc(OC(F)F)c(-c3nn(C)cc3NC(=O)c3cnn4cccnc34)c2)C1` [Example 27, N-[3-[5-(1-acetylazetidin-3-yl)sulfonyl-2-(difluoromethoxy)phenyl]-1-methyl-pyrazol-4-yl]pryazolo[1,5-a]pyrimidine-3-carboxamide], the results for the Ki in data set [4] and in data set [6] were 0.59 nM and 0.26 nM, respectively. In addition, the IC50 in data set [5] (Homo sapiens, BEAS-2B) worked out at 99 nM.
Consider `CN1CCC(S(=O)(=O)c2ccc(OC(F)F)c(-c3nn(C)cc3NC(=O)c3cnn4cccnc34)c2)C1` (single isomer, unassigned) [Example 20, N-[3-[2-(difluoromethoxy)-5-(1-methylpyrrolidin-3-yl)sulfonyl-phenyl]-1-methyl-pyrazol-4-yl]pyrazolo[1,5-a]pyrimidine-3-carboxamide], for which the figures for the Ki in data set [4] and in data set [6] were 1.5 nM and 0.65 nM, respectively. In addition, in data set [5], the IC50 amounted to 65 nM.
On to `C[C@H](O)Cn1cc(S(=O)(=O)c2ccc(OC(F)F)c(-c3nn(C)cc3NC(=O)c3cnn4cccnc34)c2)cn1` [Example 38, N-[3-[2-(difluoromethoxy)-5-[1-[(2S)-2-hydroxypropyl]pyrazol-4-yl]sulfonyl-phenyl]-1-methyl-pyrazol-4-yl]pyrazolo[1,5-a]pyrimidine-3-carboxamide], for which the results for the Ki in data set [4] and in data set [6] were 0.34 nM and 0.25 nM, respectively. Moreover, in data set [5] (Homo sapiens, BEAS-2B), the IC50 turned out to be 89 nM.
On to `CC(C)OC(=O)n1cc(NC(=O)c2cnn3cccnc23)c(-c2cc(S(C)(=O)=O)ccc2OC(F)F)n1` [Example 34, isopropyl 3-[2-(difluoromethoxy)-5-methylsulfonyl-phenyl]-4-(pyrazolo[1,5-a]pyrimidine-3-carbonylamino)pyrazole-1-carboxylate], for which the Ki was determined as 0.31 nM in data set [4] and 0.29 nM in data set [6]. In addition, the IC50 in data set [5] (Homo sapiens, BEAS-2B) amounted to 21 nM.
Consider `CN1C=Cc2cc(S(=O)(=O)c3ccc(OC(F)F)c(-c4nn(C)cc4NC(=O)c4cnn5cccnc45)c3)ccc2C1` [Example 64, N-[3-[2-(difluoromethoxy)-5-[(2-methyl-1H-isoquinolin-6-yl)sulfonyl]phenyl]-1-methyl-pyrazol-4-yl]pyrazolo[1,5-a]pyrimidine-3-carboxamide], for which the Ki came out at 1.9 nM in data set [4] and 0.84 nM in data set [6]. For the same compound, in data set [5] (Homo sapiens, BEAS-2B), the IC50 stood at 210 nM.
On the same counts, the results for `CN1CCN(CCn2cc(S(=O)(=O)c3ccc(OC(F)F)c(-c4nn(C)cc4NC(=O)c4cnn5cccnc45)c3)cn2)CC1` [Example 54, N-[3-[2-(difluoromethoxy)-5-[1-[2-(4-methylpiperazin-1-yl)ethyl]pyrazol-4-yl]sulfonyl-phenyl]-1-methyl-pyrazol-4-yl]pyrazolo[1,5-a]pyrimidine-3-carboxamide] are 1.2 nM, 0.21 nM and 140 nM.
On to `Cn1cc(NC(=O)c2cnn3cccnc23)c(-c2cc(S(=O)(=O)c3cnn(CCN)c3)ccc2OC(F)F)n1` [Example 47, N-[3-[5-[1-(2-aminoethyl)pyrazol-4-yl]sulfonyl-2-(difluoromethoxy)phenyl]-1-methyl-pyrazol-4-yl]pyrazolo[1,5-a]pyrimidine-3-carboxamide], for which the values for the Ki in data set [4] and in data set [6] were 0.31 nM and 0.33 nM, respectively. Besides, the 50% inhibitory concentration (IC50) in data set [5] (Homo sapiens, BEAS-2B) came out at 210 nM.
In the case of `CC(O)C(C)S(=O)(=O)c1ccc(OC(F)F)c(-c2nn(C)cc2NC(=O)c2cnn3cccnc23)c1` (single isomer, unassigned) [Example 71, N-[3-[2-(difluoromethoxy)-5-(2-hydroxy-1-methyl-propyl)sulfonyl-phenyl]-1-methyl-pyrazol-4-yl]pyrazolo[1,5-a]pyrimidine-3-carboxamide], the Ki in data set [4] came to 1.4 nM; in data set [6], 0.46 nM. For the same compound, the IC50 in data set [5] worked out at 110 nM.
On to `Cn1cnc(S(=O)(=O)c2ccc(OC(F)F)c(-c3nn(C)cc3NC(=O)c3cnn4cccnc34)c2)c1` [Example 65, N-[3-[2-(difluoromethoxy)-5-(1-methylimidazol-4-yl)sulfonyl-phenyl]-1-methyl-pyrazol-4-yl]pyrazolo[1,5-a]pyrimidine-3-carboxamide], for which the Ki is 0.72 nM in data set [4] and 0.24 nM in data set [6]. Also, the IC50 in data set [5] (Homo sapiens, BEAS-2B) is 72 nM.
As to `CN1CCCC1CCn1cc(S(=O)(=O)c2ccc(OC(F)F)c(-c3nn(C)cc3NC(=O)c3cnn4cccnc34)c2)cn1` (stereo in doubt) [Example 57, N-[3-[2-(difluoromethoxy)-5-[1-[2-[(2S)-1-methylpyrrolidin-2-yl]ethyl]pyrazol-4-yl]sulfonyl-phenyl]-1-methyl-pyrazol-4-yl]pyrazolo[1,5-a]pyrimidine-3-carboxamide], the Ki came to 0.57 nM in data set [4] and 0.54 nM in data set [6]. In addition, the IC50 in data set [5] (Homo sapiens, BEAS-2B) is 54 nM.
